Data: patent US20040077580A1, “Antisense modulation of PI3K P85 Expression” (priority 2000, published 2004)
Strand notation (5' to 3'): a small letter for the sugar, then the base; units joined by * are phosphorothioate-linked, units joined directly phosphodiester-linked; [ ] holds rarer units or linkages, { } end groups; capitals alone tell only the bases. d = 2'-deoxy (DNA)

Each substance was assayed on human PI3K p85 RNA (assay: Inhibition of human PI3K p85 mRNA levels by antisense oligonucleotides, real-time quantitative PCR). Settings: phosphorothioate oligodeoxynucleotides, oligonucleotide 150 nM, averages from two experiments.
Format: cell-based
Experimental: Cells were harvested 16 hours after oligonucleotide treatment.
Poly(A)+ mRNA was isolated according to Miura et al., Clin. Chem., 1996, 42, 1758-1764. Other methods for poly(A)+ mRNA isolation are taught in, for example, Ausubel, F. M. et al., Current Protocols in Molecular Biology, Volume 1, pp. 4.5.1-4.5.3, John Wiley & Sons, Inc., 1993. […] 60 μL lysis buffer (10 mM Tris-HCl, pH 7.6, 1 mM EDTA, 0.5 M NaCl, 0.5% NP-40, 20 mM vanadyl-ribonucleoside complex) was added to each well, the plate was gently agitated and then incubated at room temperature for five minutes. 55 μL of lysate was transferred to Oligo d(T) coated 96-well plates (AGCT Inc., Irvine Calif.). Plates were incubated for 60 minutes at room temperature, washed 3 times with 200 μL of wash buffer (10 mM Tris-HCl pH 7.6, 1 mM EDTA, 0.3 M NaCl). After the final wash, the plate was blotted on paper towels to remove excess wash buffer and then air-dried for 5 minutes. 60 μL of elution buffer (5 mM Tris-HCl pH 7.6), preheated to 70° C. was added to each well, the plate was incubated on a 90° C. hot plate for 5 minutes, and the eluate was then transferred to a fresh 96-well plate.
PI3K p85 probes and primers were designed to hybridize to the human PI3K p85 sequence, using published sequence information (GenBank accession number M61906, incorporated herein as SEQ ID NO: 1).
Target sites are indicated by nucleotide numbers, as given in the sequence source reference (Genbank accession no. M61906), to which the oligonucleotide binds. All compounds in Table 1 are oligodeoxynucleotides with phosphorothioate backbones (internucleoside linkages) throughout. […] Data are averages from two experiments. If present, “N.D.” indicates “no data”.
In accordance with the present invention, a second series of oligonucleotides targeted to human PI3K p85 were synthesized. Target sites are indicated by nucleotide numbers, as given in the sequence source reference (Genbank accession no. M61906), to which the oligonucleotide binds.
Cytidine residues in the 2′-MOE wings are 5-methylcytidines.
Data were obtained by real-time quantitative PCR as described in other examples herein and are averaged from two experiments. If present, “N.D.” indicates “no data”.

| Substance | % Inhibition of PI3K p85 mRNA levels |
| --- | --- |
| 27977 (antisense ATCTTCTTCTCTTTCCTT; DNA, all phosphorothioate, methylation of C not given here) [compound 27977] | 0% |
| 27978 (antisense GCTTCCTGTCCATCACTG; DNA, all phosphorothioate, methylation of C not given here) [compound 27978] | 29% |
| 27979 (antisense TTCAATGGCTTCCACGAG; DNA, all phosphorothioate, methylation of C not given here) [compound 27979] | 6% |
| 27980 (antisense AATTCTGCCAGGTTGCTG; DNA, all phosphorothioate, methylation of C not given here) [compound 27980] | 0% |
| 27981 (antisense GTAAGTCCAGGAGATAGC; DNA, all phosphorothioate, methylation of C not given here) [compound 27981] | 14% |
| 27982 (antisense ATTTCACTGTAAACGGCT; DNA, all phosphorothioate, methylation of C not given here) [compound 27982] | 19% |
| 27983 (antisense GCTTGAAGAAATGTTTTA; DNA, all phosphorothioate, methylation of C not given here) [compound 27983] | 0% |
| 27984 (antisense GGCTGCTGAGAATCTGAA; DNA, all phosphorothioate, methylation of C not given here) [compound 27984] | 22% |
| 27985 (antisense GTTCATTCCATTCAGTTG; DNA, all phosphorothioate, methylation of C not given here) [compound 27985] | 13% |
| 27986 (antisense dA*dG*dT*dA*dG*dG*dT*dT*dT*dT*dG*dG*dT*dG*dG*dT*dT*dT) [compound 27986] | 0% |
| 27987 (antisense TTATTCATACCGTTGTTG; DNA, all phosphorothioate, methylation of C not given here) [compound 27987] | 4% |
| 27988 (antisense ATTCAGCATTTTGTAAGG; DNA, all phosphorothioate, methylation of C not given here) [compound 27988] | 1% |
| 27989 (antisense ACCACAGAACTGAAGGTT; DNA, all phosphorothioate, methylation of C not given here) [compound 27989] | 0% |
| 27990 (antisense ATTTCCTGGGATGTGCGG; DNA, all phosphorothioate, methylation of C not given here) [compound 27990] | 52% |
| 27991 (antisense CCGCTCTTGGGTCTGGCA; DNA, all phosphorothioate, methylation of C not given here) [compound 27991] | 71% |
| 27992 (antisense TTTCTCATTGCCTTCACG; DNA, all phosphorothioate, methylation of C not given here) [compound 27992] | 0% |
| 27993 (antisense ATCCTTTGTATTTCTTTC; DNA, all phosphorothioate, methylation of C not given here) [compound 27993] | 15% |
| 27994 (antisense TTCAAGTCTTCTTCCAAT; DNA, all phosphorothioate, methylation of C not given here) [compound 27994] | 15% |

| Substance | % Inhibition of PI3K p85 mRNA levels |
| --- | --- |
| 27995 (antisense ATTGGTCTCTCGTCTTTC; DNA, all phosphorothioate, methylation of C not given here) [compound 27995] | 0% |
| 27996 (antisense TCAACTTCTTTTGCCGAA; DNA, all phosphorothioate, methylation of C not given here) [compound 27996] | 38% |
| 27997 (antisense TTGCCCAACCACTCGTTC; DNA, all phosphorothioate, methylation of C not given here) [compound 27997] | 55% |
| 27998 (antisense GTCTTCAGTGTTTTCATT; DNA, all phosphorothioate, methylation of C not given here) [compound 27998] | 0% |
| 27999 (antisense CTTTGTTTCGGTTGCTGC; DNA, all phosphorothioate, methylation of C not given here) [compound 27999] | 36% |
| 28000 (antisense CCTGTTTACTGCTCTCCC; DNA, all phosphorothioate, methylation of C not given here) [compound 28000] | 20% |
| 28001 (antisense CCACCACTACAGAGCAGG; DNA, all phosphorothioate, methylation of C not given here) [compound 28001] | 0% |
| 28002 (antisense CTTTACTTCGCCGTCCAC; DNA, all phosphorothioate, methylation of C not given here) [compound 28002] | 41% |
| 28003 (antisense AAAGCCATAGCCAGTTGC; DNA, all phosphorothioate, methylation of C not given here) [compound 28003] | 0% |
| 28004 (antisense ACATTGAGGGAGTCGTTG; DNA, all phosphorothioate, methylation of C not given here) [compound 28004] | 0% |
| 28005 (antisense GCCCTTTGCTTTCCAGAG; DNA, all phosphorothioate, methylation of C not given here) [compound 28005] | 0% |
| 28006 (antisense ATCAGACTGGAGAGGAGC; DNA, all phosphorothioate, methylation of C not given here) [compound 28006] | 27% |
| 28007 (antisense AAAGAAGGGATAAGCACT; DNA, all phosphorothioate, methylation of C not given here) [compound 28007] | 7% |
| 28008 (antisense CTGCCTCTCTCTCCTCCG; DNA, all phosphorothioate, methylation of C not given here) [compound 28008] | 0% |
| 28009 (antisense CCAGGCTAAACCAGGCTG; DNA, all phosphorothioate, methylation of C not given here) [compound 28009] | 57% |
| 28010 (antisense TGTCTGGGTCCACCGTGC; DNA, all phosphorothioate, methylation of C not given here) [compound 28010] | 55% |
| 28011 (antisense GACGTGCCTTTCTGCTAC; DNA, all phosphorothioate, methylation of C not given here) [compound 28011] | 28% |
